# Experimental data as given in US20120225933A1, “REGULATED EXPRESSION SYSTEMS” (priority 2009, published 2012).
# Assay: Toxicity of the inducer doxycycline in mice
# Format: in vivo, BALB/c mice
# Conditions: 200 mg/kg dox i.p.; also seen in control mice without vector
# Description: In view of the fact that the luciferase activity levels obtained in the induced state were very low, the decision was made to increase the dose of inducer. To this end, two consecutive doses of 100 and 200 mg/kg of dox were administered by i.p. route, separated by a 14-day period.
# The luciferase activity in the hepatic area was measured at 24 hours post-induction. […] These symptoms were also observed in the control mice, those without a vector. The system's maximum rate of induction is reached at a dose of 100 mg/kg of dox, and is approximately 10-fold.
structure (smiles),measurement,value
"C[C@H]1c2cccc(O)c2C(=O)C2=C(O)[C@]3(O)C(=O)C(C(N)=O)=C(O)[C@@H](N(C)C)[C@@H]3[C@@H](O)[C@@H]21 [dox, doxycycline]",dox-mediated toxicity,several mice died
